These results are taken from patent US6037158A, “Alcohol dehydrogenase and its use for the enzymatic production of chiral hydroxy compounds” (priority 1996, dated 2000).

For data set [1], the target named is T1, alcohol dehydrogenase from L. brevis (Levilactobacillus brevis, UniProt Q84EX5).
T1 sequence (Q84EX5 2-252): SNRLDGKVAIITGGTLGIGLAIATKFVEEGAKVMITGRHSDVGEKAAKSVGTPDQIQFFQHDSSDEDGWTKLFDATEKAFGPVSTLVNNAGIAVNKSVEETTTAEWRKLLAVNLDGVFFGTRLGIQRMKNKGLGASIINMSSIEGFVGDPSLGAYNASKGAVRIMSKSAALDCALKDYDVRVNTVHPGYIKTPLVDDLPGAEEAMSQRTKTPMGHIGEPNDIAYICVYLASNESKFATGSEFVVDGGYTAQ
Kind of data set: biochemical. The following applies: 10 mM keto compound. The class given is biochemical. The method, then: A series of other ketones and keto esters were used instead of acetophenone and it was tested whether these can be reduced by enzyme catalysis.
The following test mixture was used for this:
970 μl triethanolamine buffer (50 mM; pH 7.0, containing 10 mM keto compound)
20 μl NADPH (0.19 mM in the test)
Some of the ketones were also tested at a concentration of 1 mM in order to verify a possible substrate inhibition at 10 mM.

Data set [2] deals with T2, alcohol dehydrogenase from Lactobacillus brevis (Levilactobacillus brevis, UniProt Q84EX5).
T2 construct: same enzyme regenerates NADPH with isopropanol
T2 sequence (Q84EX5 2-252): T1 sequence (Q84EX5 2-252)
It is filed as biochemical. The following applies: l. brevis alcohol dehydrogenase, 24 h, 5000 µM, pH 7. How it is done:
Purified enzyme (example 2C) and the necessary coenzyme (NADP) were used for the enzyme-catalysed synthesis of (R)-phenylethanol from acetophenone. The oxidized co-enzyme was continuously regenerated by isopropanol which was simultaneously present so that the reaction only required catalytic amounts of coenzyme. In detail the mixture contained (the final concentrations of the components in the test are listed in brackets): 20 μl NADP (0.05 mM), 7.7 μl isopropanol (0.1 M), 0.6 μl acetophenone (5 mM), 921.7 μl triethanolamine buffer (50 mM; pH 7.0, containing 1 mM MgCl2) and 50 μl alcohol dehydrogenase from Lactobacillus brevis (4.5 units). This mixture with a total volume of 1 ml was incubated for 24 hours at 30° C., then a sample was analysed by means of gas chromatography. For this 100 μl was removed, shaken out with 100 μl chloroform, the phases were separated by centrifugation and an aliquot was taken from the lower phase (chloroform) for the GC.
The separation conditions for the separation of (R)- and (S)-phenylethanol on a gas chromatograph: stationary phase: Lipodex E, CD column (Macherey and Nagel, Duren), mobile phase: helium, injection volumes: 1 μl detection: FID, temperature: 110° C. Under these conditions the substrate acetophenone is eluted at 10.5 min, (S)-phenylethanol at 13.8 min and (R)-phenylethanol at 14.2 min. […]

For data set [3], the system named is whole cells of Lactobacillus brevis. Put plainly: Reduction of ketones with whole cells. The class given is cell-based. The following applies: after 2 h incubation at 30° C., 10 mM acetophenone, 50 mg cells, 0.1 M glucose. The method, then:
In addition ketones can be reduced to chiral alcohols using whole cells of L. brevis. […] The coenzyme regeneration can be achieved by isopropanol or by metabolizable substrates such as glucose.
Test mixture: 50 mg cells of L. brevis (wetweight after centrifugation) is suspended in 860 μl triethanolamine buffer (50 mM; pH 7.50; addition of 1 MM MgCl^2+) which contains 0.1 M glucose and 10 mM acetophenone. Samples are analysed by means of gas chromatography. […] Since a quantification by means of GC separation on a chiral stationary phase had been carried out, it was possible to show at the same time that the phenylethanol that forms is of high optical purity but no quantifiable (S)-alcohol could be detected. The optical purity is considerably >95% for (R)-alcohol.

`CC(=O)c1ccccc1` [acetophenone] gave an Activity in data set [1] (0.19 mM NADPH, pH 7.0, purified enzyme diluted 1:10) of 3.26 U/ml. Moreover, in data set [1] (relative to acetophenone = 100, read-out: Relative act.), the activity at 10000 µM amounted to 100%. For the same molecule, the substrate converted result in data set [2] is “more than 95%”. In addition, the “substrate remaining (GC)” value in data set [3] was “no longer detectable”.
